According to ChEMBL document CHEMBL1938384, “Lysine demethylases inhibitors” (J Med Chem, 2011):
Blank lines part the entries; values can stand above or below the molecule they belong to. Activity calls are given as the source filed them. The calls are words filed in the database; no cut-off is given here.

Columns and labels:
[1] = biological target: T1, Lysine-specific demethylase 2A (Homo sapiens, UniProt Q9Y2K7)
T1 sequence (Q9Y2K7 whole entry): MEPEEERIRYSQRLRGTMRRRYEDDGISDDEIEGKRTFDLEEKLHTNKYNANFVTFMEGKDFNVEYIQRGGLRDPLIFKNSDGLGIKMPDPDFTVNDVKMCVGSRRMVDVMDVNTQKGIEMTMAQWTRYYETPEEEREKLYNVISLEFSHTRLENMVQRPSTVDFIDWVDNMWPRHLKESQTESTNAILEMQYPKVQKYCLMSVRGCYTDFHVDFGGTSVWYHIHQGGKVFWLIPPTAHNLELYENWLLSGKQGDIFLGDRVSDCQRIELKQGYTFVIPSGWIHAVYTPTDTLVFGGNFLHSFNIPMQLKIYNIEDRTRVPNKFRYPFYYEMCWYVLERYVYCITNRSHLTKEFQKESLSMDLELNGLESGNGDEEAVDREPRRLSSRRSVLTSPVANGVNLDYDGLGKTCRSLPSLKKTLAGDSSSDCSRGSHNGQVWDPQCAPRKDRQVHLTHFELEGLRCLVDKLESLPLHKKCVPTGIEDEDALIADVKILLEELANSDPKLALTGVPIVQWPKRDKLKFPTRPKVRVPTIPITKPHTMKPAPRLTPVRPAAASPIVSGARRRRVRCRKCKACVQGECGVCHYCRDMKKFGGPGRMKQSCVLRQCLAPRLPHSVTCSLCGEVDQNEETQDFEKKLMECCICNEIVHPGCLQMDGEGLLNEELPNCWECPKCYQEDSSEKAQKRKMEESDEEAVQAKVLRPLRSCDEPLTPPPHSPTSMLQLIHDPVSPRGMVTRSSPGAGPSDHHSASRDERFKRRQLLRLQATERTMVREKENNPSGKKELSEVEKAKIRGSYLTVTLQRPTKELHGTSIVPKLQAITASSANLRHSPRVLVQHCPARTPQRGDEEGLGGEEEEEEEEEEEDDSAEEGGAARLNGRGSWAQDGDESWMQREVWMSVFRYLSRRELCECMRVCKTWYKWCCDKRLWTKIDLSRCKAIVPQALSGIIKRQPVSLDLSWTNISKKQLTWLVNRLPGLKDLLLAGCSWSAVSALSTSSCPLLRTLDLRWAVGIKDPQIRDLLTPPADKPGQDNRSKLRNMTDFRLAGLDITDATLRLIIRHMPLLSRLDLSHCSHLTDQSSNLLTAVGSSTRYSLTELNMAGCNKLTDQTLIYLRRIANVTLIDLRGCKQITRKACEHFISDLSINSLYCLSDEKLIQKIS

[2] = biological target: Hypoxia-inducible factor 1-alpha inhibitor (Homo sapiens, UniProt Q9NWT6)
Chain of Hypoxia-inducible factor 1-alpha inhibitor (Q9NWT6 whole entry): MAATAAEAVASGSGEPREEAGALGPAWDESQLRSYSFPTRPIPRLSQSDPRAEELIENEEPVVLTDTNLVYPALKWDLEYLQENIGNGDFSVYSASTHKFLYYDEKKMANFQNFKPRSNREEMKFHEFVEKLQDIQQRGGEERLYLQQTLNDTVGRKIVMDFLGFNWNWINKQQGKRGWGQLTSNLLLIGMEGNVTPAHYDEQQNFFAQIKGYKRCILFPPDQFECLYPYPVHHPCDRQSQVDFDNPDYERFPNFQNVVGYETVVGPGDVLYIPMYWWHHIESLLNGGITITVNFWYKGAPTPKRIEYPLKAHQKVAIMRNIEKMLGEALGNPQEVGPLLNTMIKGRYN

[3] = biological target: T2, Lysine-specific demethylase 4C (Homo sapiens, UniProt Q9H3R0)
T2 sequence (Q9H3R0 whole entry): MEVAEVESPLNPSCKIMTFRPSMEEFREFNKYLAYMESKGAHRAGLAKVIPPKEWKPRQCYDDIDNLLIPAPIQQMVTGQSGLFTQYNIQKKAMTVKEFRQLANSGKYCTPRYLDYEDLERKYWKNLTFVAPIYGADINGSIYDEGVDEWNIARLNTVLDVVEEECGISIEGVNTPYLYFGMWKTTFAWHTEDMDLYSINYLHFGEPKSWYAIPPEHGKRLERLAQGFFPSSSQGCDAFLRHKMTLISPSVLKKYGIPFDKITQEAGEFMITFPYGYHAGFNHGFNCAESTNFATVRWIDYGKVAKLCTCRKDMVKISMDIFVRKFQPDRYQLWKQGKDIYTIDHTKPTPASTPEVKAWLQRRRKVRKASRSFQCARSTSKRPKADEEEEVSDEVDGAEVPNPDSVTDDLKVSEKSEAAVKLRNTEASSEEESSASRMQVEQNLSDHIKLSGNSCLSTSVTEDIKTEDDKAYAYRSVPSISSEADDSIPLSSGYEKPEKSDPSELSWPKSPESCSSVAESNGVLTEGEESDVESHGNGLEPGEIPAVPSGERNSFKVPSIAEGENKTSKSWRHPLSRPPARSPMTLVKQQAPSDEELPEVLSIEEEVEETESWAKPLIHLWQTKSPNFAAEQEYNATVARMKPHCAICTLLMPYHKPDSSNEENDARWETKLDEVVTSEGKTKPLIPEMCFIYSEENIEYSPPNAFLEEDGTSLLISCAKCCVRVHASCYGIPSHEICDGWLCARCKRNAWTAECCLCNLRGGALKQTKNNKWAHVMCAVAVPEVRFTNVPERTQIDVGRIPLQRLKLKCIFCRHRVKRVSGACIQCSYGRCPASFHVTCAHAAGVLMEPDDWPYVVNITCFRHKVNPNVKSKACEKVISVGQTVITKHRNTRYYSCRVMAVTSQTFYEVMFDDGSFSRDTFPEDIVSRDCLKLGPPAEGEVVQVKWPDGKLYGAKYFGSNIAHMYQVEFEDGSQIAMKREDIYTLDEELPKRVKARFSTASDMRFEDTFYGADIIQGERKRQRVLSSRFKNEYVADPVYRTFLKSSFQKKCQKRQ

Egl nine homolog 1 [4] = biological target: T3, Egl nine homolog 1 (Homo sapiens, UniProt Q9GZT9)
Target sequence in this assay (Q9GZT9 whole entry): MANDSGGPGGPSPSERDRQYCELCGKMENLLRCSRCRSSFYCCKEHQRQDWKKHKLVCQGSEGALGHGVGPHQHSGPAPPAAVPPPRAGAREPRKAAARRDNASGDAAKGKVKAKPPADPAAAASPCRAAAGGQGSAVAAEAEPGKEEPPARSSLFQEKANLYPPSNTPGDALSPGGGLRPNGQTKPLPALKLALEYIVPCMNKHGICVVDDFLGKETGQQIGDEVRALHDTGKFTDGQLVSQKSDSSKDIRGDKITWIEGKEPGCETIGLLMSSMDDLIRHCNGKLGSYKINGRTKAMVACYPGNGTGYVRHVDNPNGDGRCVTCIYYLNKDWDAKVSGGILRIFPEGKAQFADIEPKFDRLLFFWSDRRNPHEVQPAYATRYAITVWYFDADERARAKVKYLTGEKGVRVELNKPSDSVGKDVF

[5] = biological target: T4, Lysine-specific demethylase 4A (Homo sapiens, UniProt O75164)
T4 sequence (O75164 whole entry): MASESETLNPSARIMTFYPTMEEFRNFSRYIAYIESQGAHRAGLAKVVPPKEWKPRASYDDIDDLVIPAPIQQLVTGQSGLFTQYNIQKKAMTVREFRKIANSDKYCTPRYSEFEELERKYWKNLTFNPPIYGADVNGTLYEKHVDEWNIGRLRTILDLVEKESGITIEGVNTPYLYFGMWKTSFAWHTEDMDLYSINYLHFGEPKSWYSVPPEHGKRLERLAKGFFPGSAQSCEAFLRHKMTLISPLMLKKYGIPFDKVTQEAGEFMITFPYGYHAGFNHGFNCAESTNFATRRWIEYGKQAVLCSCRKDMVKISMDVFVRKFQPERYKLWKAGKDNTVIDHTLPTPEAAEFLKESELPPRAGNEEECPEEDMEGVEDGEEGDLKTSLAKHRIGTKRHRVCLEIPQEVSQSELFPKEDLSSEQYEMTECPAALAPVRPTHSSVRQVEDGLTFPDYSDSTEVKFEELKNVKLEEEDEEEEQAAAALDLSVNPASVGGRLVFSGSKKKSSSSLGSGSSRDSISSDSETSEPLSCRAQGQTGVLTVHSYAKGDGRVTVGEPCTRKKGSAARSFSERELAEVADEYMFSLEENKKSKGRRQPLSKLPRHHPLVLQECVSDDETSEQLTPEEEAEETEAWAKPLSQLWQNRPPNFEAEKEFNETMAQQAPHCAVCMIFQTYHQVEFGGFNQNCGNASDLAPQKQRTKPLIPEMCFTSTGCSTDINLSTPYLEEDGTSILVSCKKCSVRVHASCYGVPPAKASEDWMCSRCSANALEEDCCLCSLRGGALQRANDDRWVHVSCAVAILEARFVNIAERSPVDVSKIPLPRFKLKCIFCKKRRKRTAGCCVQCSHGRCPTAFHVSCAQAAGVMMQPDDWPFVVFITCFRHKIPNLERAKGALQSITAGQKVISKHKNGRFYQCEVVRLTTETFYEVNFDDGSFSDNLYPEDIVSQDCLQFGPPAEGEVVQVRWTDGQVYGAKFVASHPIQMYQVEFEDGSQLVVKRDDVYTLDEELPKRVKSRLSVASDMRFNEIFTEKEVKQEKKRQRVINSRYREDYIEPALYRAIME

[6] = biological target: Lysine-specific demethylase 6B (Homo sapiens, UniProt O15054); assay: Inhibition of KDM6B
Chain of Lysine-specific demethylase 6B (O15054 whole entry): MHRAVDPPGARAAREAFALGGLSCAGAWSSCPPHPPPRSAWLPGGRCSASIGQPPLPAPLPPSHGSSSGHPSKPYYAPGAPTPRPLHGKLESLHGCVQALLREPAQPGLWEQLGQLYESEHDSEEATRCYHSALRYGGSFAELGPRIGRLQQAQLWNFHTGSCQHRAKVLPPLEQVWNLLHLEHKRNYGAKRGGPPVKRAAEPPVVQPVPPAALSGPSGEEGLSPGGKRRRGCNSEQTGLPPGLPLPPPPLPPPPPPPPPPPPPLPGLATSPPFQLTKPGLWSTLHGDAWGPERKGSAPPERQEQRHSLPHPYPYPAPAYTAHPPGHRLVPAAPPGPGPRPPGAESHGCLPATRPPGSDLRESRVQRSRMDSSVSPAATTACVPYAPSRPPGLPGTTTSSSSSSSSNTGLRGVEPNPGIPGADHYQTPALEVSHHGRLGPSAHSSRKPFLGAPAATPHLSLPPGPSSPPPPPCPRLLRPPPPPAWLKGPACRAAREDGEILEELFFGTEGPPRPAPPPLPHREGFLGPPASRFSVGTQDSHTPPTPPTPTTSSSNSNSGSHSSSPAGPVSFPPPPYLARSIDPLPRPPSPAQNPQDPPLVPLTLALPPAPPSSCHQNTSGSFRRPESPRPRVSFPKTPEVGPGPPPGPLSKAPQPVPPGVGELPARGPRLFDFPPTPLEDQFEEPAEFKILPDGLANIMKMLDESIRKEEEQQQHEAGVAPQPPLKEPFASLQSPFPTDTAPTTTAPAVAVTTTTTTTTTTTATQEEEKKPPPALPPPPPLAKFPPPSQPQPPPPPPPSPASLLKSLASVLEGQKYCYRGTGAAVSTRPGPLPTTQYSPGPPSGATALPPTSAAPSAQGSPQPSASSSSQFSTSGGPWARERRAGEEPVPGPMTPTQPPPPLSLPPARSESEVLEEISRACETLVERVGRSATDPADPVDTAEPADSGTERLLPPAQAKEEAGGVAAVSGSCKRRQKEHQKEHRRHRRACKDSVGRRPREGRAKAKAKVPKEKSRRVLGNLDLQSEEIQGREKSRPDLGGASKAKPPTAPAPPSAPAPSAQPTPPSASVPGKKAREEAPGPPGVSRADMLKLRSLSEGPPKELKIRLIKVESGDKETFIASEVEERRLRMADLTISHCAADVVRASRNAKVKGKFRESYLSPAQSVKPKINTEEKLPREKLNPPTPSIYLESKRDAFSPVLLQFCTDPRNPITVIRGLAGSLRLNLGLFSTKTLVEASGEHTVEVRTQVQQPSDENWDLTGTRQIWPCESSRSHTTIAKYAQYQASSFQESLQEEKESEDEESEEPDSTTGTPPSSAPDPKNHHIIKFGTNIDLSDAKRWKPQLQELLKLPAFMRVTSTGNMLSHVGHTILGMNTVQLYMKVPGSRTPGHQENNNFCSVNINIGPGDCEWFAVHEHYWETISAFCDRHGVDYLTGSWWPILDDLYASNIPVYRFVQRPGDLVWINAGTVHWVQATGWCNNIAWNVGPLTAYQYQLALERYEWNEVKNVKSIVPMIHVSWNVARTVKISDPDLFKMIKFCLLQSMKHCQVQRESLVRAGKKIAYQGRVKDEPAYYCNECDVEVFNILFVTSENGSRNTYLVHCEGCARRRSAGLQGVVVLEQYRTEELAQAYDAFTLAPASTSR

Prolyl hydroxylase EGLN3 = Prolyl hydroxylase EGLN3 (Homo sapiens, UniProt Q9H6Z9); assay: Inhibition of PHD3
Chain of Prolyl hydroxylase EGLN3 (Q9H6Z9 whole entry): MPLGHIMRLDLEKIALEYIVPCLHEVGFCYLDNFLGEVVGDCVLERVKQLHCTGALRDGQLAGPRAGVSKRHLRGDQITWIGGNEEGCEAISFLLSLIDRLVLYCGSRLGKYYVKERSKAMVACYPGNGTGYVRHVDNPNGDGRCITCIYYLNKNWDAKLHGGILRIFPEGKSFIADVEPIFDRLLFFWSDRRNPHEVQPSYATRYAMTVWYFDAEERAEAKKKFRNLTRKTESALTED

Prolyl hydroxylase EGLN2 = Prolyl hydroxylase EGLN2 (Homo sapiens, UniProt Q96KS0)
Chain of Prolyl hydroxylase EGLN2 (Q96KS0 whole entry): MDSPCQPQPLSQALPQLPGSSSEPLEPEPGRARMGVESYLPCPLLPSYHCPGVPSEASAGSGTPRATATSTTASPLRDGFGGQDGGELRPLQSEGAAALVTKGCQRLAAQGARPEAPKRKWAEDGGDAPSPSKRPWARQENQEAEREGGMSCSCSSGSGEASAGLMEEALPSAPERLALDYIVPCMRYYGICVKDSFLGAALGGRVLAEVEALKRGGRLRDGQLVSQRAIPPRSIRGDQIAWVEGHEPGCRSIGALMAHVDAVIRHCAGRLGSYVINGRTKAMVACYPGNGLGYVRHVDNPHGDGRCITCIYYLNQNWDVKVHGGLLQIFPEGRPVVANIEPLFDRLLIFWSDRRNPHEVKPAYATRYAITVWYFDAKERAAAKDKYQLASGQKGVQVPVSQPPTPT

[7] = biological target: Histone lysine demethylase PHF8 (Homo sapiens, UniProt Q9UPP1); assay: Inhibition of KDM7B
Chain of Histone lysine demethylase PHF8 (Q9UPP1 whole entry): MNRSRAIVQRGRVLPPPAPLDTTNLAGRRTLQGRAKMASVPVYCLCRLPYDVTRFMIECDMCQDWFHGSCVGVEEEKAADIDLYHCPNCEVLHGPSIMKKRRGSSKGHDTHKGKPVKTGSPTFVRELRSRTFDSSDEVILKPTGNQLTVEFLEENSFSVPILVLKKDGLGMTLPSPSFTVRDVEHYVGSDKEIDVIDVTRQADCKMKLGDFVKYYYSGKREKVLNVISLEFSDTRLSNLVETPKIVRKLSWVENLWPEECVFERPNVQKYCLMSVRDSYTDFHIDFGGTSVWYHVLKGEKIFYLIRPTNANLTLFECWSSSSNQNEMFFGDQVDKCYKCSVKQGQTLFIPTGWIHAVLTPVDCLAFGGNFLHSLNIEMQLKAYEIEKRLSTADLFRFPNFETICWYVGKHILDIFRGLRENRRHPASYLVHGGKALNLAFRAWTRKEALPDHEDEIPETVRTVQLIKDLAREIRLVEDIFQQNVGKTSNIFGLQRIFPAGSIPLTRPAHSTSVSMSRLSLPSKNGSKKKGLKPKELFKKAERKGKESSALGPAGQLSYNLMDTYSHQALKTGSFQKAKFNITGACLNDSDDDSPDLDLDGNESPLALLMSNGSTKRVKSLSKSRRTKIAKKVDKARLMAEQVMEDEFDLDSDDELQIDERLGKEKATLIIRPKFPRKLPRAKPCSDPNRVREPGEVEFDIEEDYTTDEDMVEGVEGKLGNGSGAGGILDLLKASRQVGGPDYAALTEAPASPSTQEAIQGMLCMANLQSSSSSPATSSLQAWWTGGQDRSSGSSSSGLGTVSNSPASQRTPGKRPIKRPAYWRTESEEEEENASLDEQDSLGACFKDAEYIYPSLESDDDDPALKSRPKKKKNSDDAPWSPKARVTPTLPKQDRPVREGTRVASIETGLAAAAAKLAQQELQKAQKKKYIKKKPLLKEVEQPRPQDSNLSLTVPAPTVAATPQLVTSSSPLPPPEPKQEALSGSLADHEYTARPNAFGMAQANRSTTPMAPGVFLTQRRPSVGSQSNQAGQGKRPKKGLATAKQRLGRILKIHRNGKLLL

Egl nine homolog 1 [8] = biological target: T3, Egl nine homolog 1; remark: listed apart in the source
Target sequence in this assay (Q9GZT9 2-426 limits assumed): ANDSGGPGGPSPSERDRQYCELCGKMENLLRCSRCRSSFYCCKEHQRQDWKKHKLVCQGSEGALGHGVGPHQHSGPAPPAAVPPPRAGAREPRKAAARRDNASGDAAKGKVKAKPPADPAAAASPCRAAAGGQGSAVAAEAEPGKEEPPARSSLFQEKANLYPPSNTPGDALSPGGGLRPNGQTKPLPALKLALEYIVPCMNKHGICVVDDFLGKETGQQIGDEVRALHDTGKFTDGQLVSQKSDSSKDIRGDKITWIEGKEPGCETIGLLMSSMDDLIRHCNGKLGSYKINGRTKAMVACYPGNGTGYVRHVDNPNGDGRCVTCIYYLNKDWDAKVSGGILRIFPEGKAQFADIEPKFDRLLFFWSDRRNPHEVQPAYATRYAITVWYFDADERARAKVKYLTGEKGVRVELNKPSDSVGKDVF

[9] = biological target: T5, Amine oxidase [flavin-containing] B (Homo sapiens, UniProt P27338)
T5 sequence (P27338 whole entry): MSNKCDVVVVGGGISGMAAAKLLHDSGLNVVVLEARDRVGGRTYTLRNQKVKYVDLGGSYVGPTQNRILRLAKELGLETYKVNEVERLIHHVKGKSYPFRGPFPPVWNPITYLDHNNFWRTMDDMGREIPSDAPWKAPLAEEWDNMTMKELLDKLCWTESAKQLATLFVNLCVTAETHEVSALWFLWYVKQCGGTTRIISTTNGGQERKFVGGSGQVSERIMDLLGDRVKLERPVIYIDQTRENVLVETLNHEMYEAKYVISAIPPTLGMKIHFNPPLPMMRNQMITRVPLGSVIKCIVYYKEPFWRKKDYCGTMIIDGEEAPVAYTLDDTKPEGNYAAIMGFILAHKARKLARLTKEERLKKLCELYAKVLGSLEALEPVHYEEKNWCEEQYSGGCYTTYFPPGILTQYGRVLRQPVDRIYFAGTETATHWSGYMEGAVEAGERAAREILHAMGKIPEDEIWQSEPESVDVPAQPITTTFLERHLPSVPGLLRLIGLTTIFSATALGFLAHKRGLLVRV

[10] = biological target: T6, Amine oxidase [flavin-containing] A (Homo sapiens, UniProt P21397)
T6 sequence (P21397 whole entry): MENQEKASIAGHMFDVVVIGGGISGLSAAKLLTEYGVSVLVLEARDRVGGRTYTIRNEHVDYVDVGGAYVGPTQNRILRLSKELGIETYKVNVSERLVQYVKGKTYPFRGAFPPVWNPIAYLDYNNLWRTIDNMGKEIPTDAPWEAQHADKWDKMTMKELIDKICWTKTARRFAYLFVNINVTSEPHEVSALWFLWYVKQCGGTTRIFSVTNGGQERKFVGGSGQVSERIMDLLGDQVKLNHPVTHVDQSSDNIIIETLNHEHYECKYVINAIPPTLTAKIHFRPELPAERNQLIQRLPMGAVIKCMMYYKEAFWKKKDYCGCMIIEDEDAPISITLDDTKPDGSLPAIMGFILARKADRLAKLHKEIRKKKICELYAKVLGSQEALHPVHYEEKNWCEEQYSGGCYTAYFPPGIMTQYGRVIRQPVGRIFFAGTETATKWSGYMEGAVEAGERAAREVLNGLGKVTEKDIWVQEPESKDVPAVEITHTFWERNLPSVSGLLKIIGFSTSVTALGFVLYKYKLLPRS

SMILES: O=C(O)CC[C@@H](O)C(=O)O
- IC50 [1]: 106 µM

SMILES: O=C(O)CC[C@H](O)C(=O)O
- IC50 [1]: 48 µM

SMILES: NC1CC1c1cc(F)cc(F)c1OCc1ccccc1 (configuration not stated)
- Ki [9]: 17 µM
- Ki [10]: 110 µM

SMILES: O=C(O)c1ccnc2c(O)cccc12
- IC50 [2]: 21 µM
- IC50 (Egl nine homolog 1 [4]): 14 µM

SMILES: S=C(SSC(=S)N1CCCC1)N1CCCC1 [BIS(PYRROLIDINYLTHIOCARBONYL)DISULFIDE]
- IC50 [5]: 3.3 µM

Now from value to molecule:

- IC50 [2]: 22 µM
- IC50 [3]: 3.4 µM
- IC50 (Egl nine homolog 1 [4]): 83 µM
- IC50 [5]: 4.3 µM
- IC50 [6]: 43 µM
- IC50 (Prolyl hydroxylase EGLN3): 31 µM
- IC50 (Prolyl hydroxylase EGLN2): 54 µM
- IC50 [7]: 10 µM
SMILES: O=C(O)/C=C/C(=O)N(O)CCCCNCc1ccc(COC(=O)Nc2cccc3ccccc23)cc1

- inhibition (Egl nine homolog 1 [8]): inactive
SMILES: O=C(O)C(=O)N[C@H](Cc1ccc(OS(=O)(=O)c2ccc(Br)cc2)cc1)C(=O)O

- IC50 (Egl nine homolog 1 [4]): > 400 µM
SMILES: O=C(O)c1ccnc(C(=O)O)c1Nc1ccccc1F

- Ki [9]: 740 µM
- Ki [10]: 230 µM
SMILES: NC1CC1c1cccc(OCC[C@H](NC(=O)c2ccccc2)C(=O)NCc2ccccc2)c1 (some centres not stated)

- Ki [9]: > 133 µM
SMILES: NC1CC1c1ccc(NC(=O)C(Cc2ccccc2)NC(=O)OCc2ccccc2)cc1 (configuration not stated)

- Ki [9]: 1700 µM
- Ki [10]: 250 µM
SMILES: N[C@@H]1C[C@H]1c1ccc(OCC[C@H](NC(=O)c2ccccc2)C(=O)NCc2ccccc2)cc1
